Assay results as given in patent US20220381772A1, “SYSTEMS AND METHODS FOR EVALUATING NK CELLS” (The Regents of The University of California, priority 2019, published 2022).
“Also recorded” adds a separate entry of the source.

B1: rhIFN-γ: recombinant human IFN-γ from Biolegend (protein, UniProt P01579 24-161, looked up)
Interferon gamma: QDPYVKEAENLKKYFNAGHSDVADNGTLFLGILKNWKEESDRKIMQSQIVSFYFKLFKNFKDDQSIQKSVETIKEDMNVKFFNSNKKKRDDFEKLTNYSVTDLNVQRKAIHELIQVMAELSPAAKTGKRKRSQMLFRG

Tests used:
Assay type in all cases: cell-based, human
[1] = test system: MP2 tumors; test: Paclitaxel-induced cell death, propidium iodide staining; details: for cell death: poorly differentiated MP2, 18-20 hours
Protocol: (§1) P-values of <0.05 were obtained for differences between MP2 vs. PL12 and Capan at the concentrations of 10 nM, 200 nM, 600 nM, 1000 nM and […] of Paclitaxel (n=2 per each experimental condition).
(§2) The viability of cells was determined by staining with propidium iodide (n=3/each experimental condition).

[2] = test system: NK-supernatant differentiated MP2 tumors; test: as above; details: for cell death: MP2 differentiated with NK-supernatants 5 days, paclitaxel 10 nM to 600 nM, 18-24 h
Protocol: as §2

[3] = test system: OSCSCs; test: Chemo-drug induced cell death, propidium iodide staining and flow cytometry
Protocol: (§3) OSCCs or OSCSCs were seeded at 1×10^5 cells/well in 24-well plate for 24 h prior to the addition of highly purified NK cells pre-treated with IL-2 (1000 units/ml) for 24 h. NK cells were added to tumor cells at 2:1 effector to target ratio. At time 0 when NK cells were added to the tumor culture, a final concentration of 10 μg/ml of propidium iodide (PI) was also added. The cells were then subsequently tracked for over 72 h using time-lapse microscopy with Nikon Eclipse Ti-E inverted microscope fitted with a culture chamber to provide cells with a stable temperature of 37° C. with 5% CO2. An image was taken every 15 min and a representation is shown at day 1, day 1½, and day 3. OSCSCs but not OSCCs which are lysed take up PI and appear orange in the time-lapse (A). NK cells were left untreated or treated with IL-2 (1000 units/ml), anti-CD16 mAb (3 μg/ml), or a combination of IL-2 (1000 units/ml) and anti-CD16 mAb (3 μg/ml) for 18 h before they were added to ^51Cr-labeled OSCSCs and OSCCs. NK cell-mediated cytotoxicity was determined using a standard 4 h ^51Cr release assay and the lytic units 30/10^6 cells were determined using inverse number of NK cells required to lyse 30% of the target cells×100 (B). NK cells were treated as described in (B) and each NK sample was either cultured in the absence or presence of OSCSCs and OSCCs at an NK cell to target cell ratio of 0.5:1. After an overnight incubation, the supernatants were removed from the co-cultures and the levels of IFN-γ secretion were determined using specific ELISAs. One of minimum three representative experiments is shown in each of (C). The surface expression of MHC class I and CD44 on OSCCs and OSCSCs were assessed with flow cytometric analysis after staining with the respective PE-conjugated antibodies. Isotype control antibodies were used as control. The numbers on the right hand corner are the percentages and the mean channel fluorescence intensities for each histogram (D). The surface expression of CD338 on OSCCs and OSCSCs was assessed by flow cytometric analysis after staining with PE-conjugated CD338 (right graphs in the histogram). Isotype control antibodies were used as control (left graphs in the histograms) (E). OSCCs and OSCSCs were left untreated or treated with 10-80 μg/ml of cisplatin for 18 h, after which the tumor cells were washed with 1×PBS, detached, and stained with propidium iodide (PI) and percent cell death was determined using flow cytometric analysis (F).

[4] = test system: OSCCs; test: as above; details: patient-derived differentiated OSCCs
Protocol: as §3

[5] = test system: PL12 tumors; test: Paclitaxel-induced cell death, propidium iodide staining; details: for cell death: well-differentiated PL12, compared with MP2, 18-20 hours
Protocol: as §1

[6] = test system: Capan tumors; test: as above
Protocol: as §1

[7] = test system: MP2 tumors; test: Surface expression of CD44, CD54, MHC-class I and B7H1, flow cytometry; details: rhIFN-γ 200 U/mL, 24 h
Protocol: (§4) Freshly isolated NK cells were left untreated or treated with IL-2 (1000 U/mL) or the combination of anti-CD16 mAb (3 μg/mL) and IL-2 (1000 U/mL) for 18 h before they were used in co-cultures with ^51Cr labeled MP2, and PL12. NK cell-mediated cytotoxicity was determined using 4-hour ^51Cr release assay, and the lytic units 30/10^6 cells were determined using inverse number of NK cells required to lyse 30% of the target cells×100 (n=5 independent experiments). (FIG. 25A). Cells were left untreated or treated with rhTNF-α (20 ng/mL), rhIFN-γ (200 U/mL) or the combination of rhTNF-α (20 ng/mL) and […] (200 U/mL) for 24 h. Afterwards, the cells were detached and the surface expression of CD44, CD54, MHC-class I and B7H1 were assessed using staining with PE conjugated antibodies followed by flow cytometric analysis. Isotype control antibodies were used as controls (FIG. 25B) MP2 and Capan cells were treated as described in FIG. 25A, and were detached from the tissue culture plates, labeled with ^51Cr and used in a standard 4-hour ^51Cr release assay using IL-2 (1000 U/mL) treated NK cells. Pre-treatment of NK cells with IL-2 (1000 U/mL) were carried out for 18-24 h. Percent cytotoxicity was determined at different effector to target ratio and the lytic units 30/10^6 cells were determined using inverse number of NK cells required to lyse 30% of the tumor cells×100 (FIG. 25C).

[8] = test system: MP2; test: Resistance to NK cell mediated cytotoxicity after cytokine treatment, 4-hour 51Cr release assay; details: rhTNF-α 20 ng/mL or rhIFN-γ 200 U/mL; IL-2 treated NK cells
Protocol: as §4

[9] = stem-like/poorly differentiated OSCSCs, cisplatin 10-80 μg/ml for 18 h in FIG. 1F

Row | Molecule | cell death [1] | cell death [2] | cell death ([3]; NK-differentiated OSCSCs) | cell death [3, 9] | cell death [4] | cell death [5] | also measured
1 | N.N.[Cl][Pt][Cl] [CDDP, cis-dichlorodiammineplatinum] | resistant | killed | higher cell death | not susceptible to CDDP induced cell death; also recorded: minimal effects | higher cell death | killed | –
2 | CC(=O)N[C@@H](CS)C(=O)O [NAC, N-Acetyl Cysteine] | – | – | – | – | – | – | paclitaxel mediated cell death on addition of NAC ([1]; NAC (20 nM) 24 h, followed by paclitaxel): increased paclitaxel mediated cell death; paclitaxel mediated cell death on addition of NAC ([2]; NAC (20 nM) 24 h, followed by paclitaxel 10 nM to 600 nM): increased cell death; also recorded: increased paclitaxel mediated death; paclitaxel mediated cell death on addition of NAC ([5]; NAC then paclitaxel): increased paclitaxel mediated cell death; paclitaxel mediated cell death on addition of NAC ([6]; NAC then paclitaxel): increased paclitaxel mediated cell death
3 | CC(=O)O[C@H]1C(=O)[C@@]2(C)[C@H]([C@H](OC(=O)c3ccccc3)[C@]3(O)C[C@H](OC(=O)[C@H](O)[C@@H](NC(=O)c4ccccc4)c4ccccc4)C(C)=C1C3(C)C)[C@]1(OC(C)=O)CO[C@@H]1C[C@@H]2O [paclitaxel] | resistant | higher induction of cell death; also recorded: killed | higher cell death | minimal effects | higher cell death | much higher levels of cell death; also recorded: higher induction of cell death; also recorded: killed | cell death ([6]; well-differentiated Capan, compared with MP2, 18-20 hours): much higher levels of cell death; also recorded: higher induction of cell death
4 | rhIFN-γ: recombinant human IFN-γ from Biolegend | – | – | – | – | – | – | surface expression of B7H1 [7]: able to upregulate B7H1; surface expression of CD44, CD54, MHC-class I and B7H1 ([7]; rhTNF-α 20 ng/mL): increase surface expression of CD54 and MHC-class I
5 | B1 | – | – | – | – | – | – | resistance against NK cell mediated cytotoxicity [8]: significant resistance
